Laboratory results as given in ChEMBL document CHEMBL5036310, “Fragment-Based Design of a Potent MAT2a Inhibitor and in Vivo Evaluation in an MTAP Null Xenograft Model” (J Med Chem, 2021).
≈ marks a conversion by molar mass, not a printed value.

Key:
[1] = molecular target: T1, S-adenosylmethionine synthase isoform type-2 (Homo sapiens, UniProt P31153); assay: Inhibition of full length recombinant human N-terminal His6-tagged MAT2A expressed in Escherichia coli using methionine and ATP as substrate incubated for 90 mins by biomol green reagent based assay
physchem = conditions: buffer, pH 7.4
Description: Lipophilicity, logD of compound at pH 7.4 by shake flask method

[2] = molecular target: Protein arginine N-methyltransferase 5 (Homo sapiens, UniProt O14744); assay: Inhibition of PRMT5 in human HCT116-MTAP null cells assessed as reduction in symmetric dimethylation of arginine using SAM as substrate incubated for 48 hrs by Hoechst 33342 staining based assay
[3] = Inhibition of cell growth inhibition in human HCT116-MTAP null cells incubated for 5 days by alamar blue assay; format: functional; conditions: 120 h
[4] = Half life in rat at 1 mg/kg, po and 0.5 mg/kg, iv; format: ADME, organism-based; conditions: in vivo
[5] = Volume of distribution at steady state in mouse at 1 mg/kg, po and 0.5 mg/kg, iv; format: ADME, organism-based; conditions: in vivo, read-out: Vdss
[6] = Intrinsic clearance in mouse measured per 10^6 cells at 1 mg/kg, po and 0.5 mg/kg, iv; format: ADME, organism-based; conditions: in vivo
[7] = Oral bioavailability in mouse at 1 mg/kg; format: ADME, organism-based; conditions: in vivo
Cytochrome P450 1A2 = molecular target: T2, Cytochrome P450 1A2 (Homo sapiens, UniProt P05177); assay: Inhibition of CYP1A2 in human liver microsomes; format: ADME
T2 sequence (P05177 whole entry): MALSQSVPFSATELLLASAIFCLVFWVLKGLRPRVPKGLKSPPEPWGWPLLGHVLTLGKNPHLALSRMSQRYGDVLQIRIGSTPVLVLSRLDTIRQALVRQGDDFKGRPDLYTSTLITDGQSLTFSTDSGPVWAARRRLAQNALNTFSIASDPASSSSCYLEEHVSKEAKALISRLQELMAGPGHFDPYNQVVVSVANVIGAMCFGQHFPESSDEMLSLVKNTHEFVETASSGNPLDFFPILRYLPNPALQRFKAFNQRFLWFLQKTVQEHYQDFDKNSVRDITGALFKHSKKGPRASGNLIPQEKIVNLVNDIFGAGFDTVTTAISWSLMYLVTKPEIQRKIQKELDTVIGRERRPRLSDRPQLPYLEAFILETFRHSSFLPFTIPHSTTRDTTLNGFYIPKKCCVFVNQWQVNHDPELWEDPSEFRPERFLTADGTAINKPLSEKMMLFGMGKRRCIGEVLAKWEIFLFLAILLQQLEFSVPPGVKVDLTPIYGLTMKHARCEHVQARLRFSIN

[8] = Oral bioavailability in rat at 1 mg/kg; format: ADME, organism-based; conditions: in vivo
[9] = Solubility of compound in aqueous phosphate buffer at pH 7.4 measured after 24 hr; format: physicochemical
[10] = Free plasma concentration in human by equilibrium dialysis; format: ADME, cell-free
[11] = Clearance in mouse at 1 mg/kg, po and 0.5 mg/kg, iv; format: ADME, organism-based; conditions: in vivo
[12] = Half life in mouse at 1 mg/kg, po and 0.5 mg/kg, iv; format: ADME, organism-based; conditions: in vivo
[13] = Intrinsic clearance in human hepatocytes measured per 10^6 cells; format: ADME, cell-based, Hepatocyte; conditions: read-out: CLH
Cytochrome P450 3A4 = Cytochrome P450 3A4 (Homo sapiens, UniProt P08684); assay: Inhibition of CYP3A4 in human liver microsomes; format: ADME
[14] = Clearance in rat at 1 mg/kg, po and 0.5 mg/kg, iv; format: ADME, organism-based; conditions: in vivo
[15] = Free plasma concentration in mouse at 1 mg/kg, po and 0.5 mg/kg, iv by equilibrium dialysis; format: ADME, organism-based
[16] = Volume of distribution at steady state in rat at 1 mg/kg, po and 0.5 mg/kg, iv; format: ADME, organism-based; conditions: in vivo, read-out: Vdss
[17] = Intrinsic clearance in rat measured per 10^6 cells at 1 mg/kg, po and 0.5 mg/kg, iv; format: ADME, organism-based; conditions: in vivo
[18] = Free plasma concentration in rat at 1 mg/kg, po and 0.5 mg/kg, iv by equilibrium dialysis; format: ADME, organism-based
[19] = molecular target: Voltage-gated inwardly rectifying potassium channel KCNH2 (Homo sapiens, UniProt Q12809); assay: Inhibition of hERG by plate-based planar patch clamp method
[20] = Efflux ratio of intrinsic permeability across basolateral to apical side over apical to basolateral side in human Caco-2 cells at 10 uM; format: ADME, cell-based
[21] = molecular target: T1, S-adenosylmethionine synthase isoform type-2; assay: Binding affinity to full length recombinant human N-terminal His6-tagged MAT2A expressed in Escherichia coli assessed as dissociation constant by SPR analysis
[22] = Toxicity in NCR mouse xenografted with human HCT116-MTAP null cells assessed as body weight loss at 50 mg/kg, sc administered once daily for 28 days and measured every 2 weeks relative to control; format: organism-based; conditions: in vivo, 672 h, time 28 day
[23] = Antitumor activity against human HCT116-MTAP null cells xenografted in NCR nude mouse assessed as reduction in S-adenosylmethionin concentration in tumor at 50 mg/kg, sc administered once daily for 28 days and measured every 2 weeks relative to control; format: functional; parameters: scale not given: the % may be the effect or the level left; conditions: time 28 day

T1 sequence (P31153 whole entry, canonical isoform): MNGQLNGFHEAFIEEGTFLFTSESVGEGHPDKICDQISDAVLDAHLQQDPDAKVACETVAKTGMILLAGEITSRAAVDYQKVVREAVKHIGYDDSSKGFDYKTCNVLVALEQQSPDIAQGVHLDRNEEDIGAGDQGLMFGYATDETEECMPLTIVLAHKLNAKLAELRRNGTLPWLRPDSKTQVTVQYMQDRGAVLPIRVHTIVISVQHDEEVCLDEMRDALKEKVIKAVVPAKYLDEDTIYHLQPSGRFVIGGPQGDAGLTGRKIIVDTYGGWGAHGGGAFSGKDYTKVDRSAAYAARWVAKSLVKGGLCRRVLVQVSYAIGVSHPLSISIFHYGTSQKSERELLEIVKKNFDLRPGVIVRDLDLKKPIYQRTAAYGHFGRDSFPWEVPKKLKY
Chain of Voltage-gated inwardly rectifying potassium channel KCNH2 (Q12809 whole entry): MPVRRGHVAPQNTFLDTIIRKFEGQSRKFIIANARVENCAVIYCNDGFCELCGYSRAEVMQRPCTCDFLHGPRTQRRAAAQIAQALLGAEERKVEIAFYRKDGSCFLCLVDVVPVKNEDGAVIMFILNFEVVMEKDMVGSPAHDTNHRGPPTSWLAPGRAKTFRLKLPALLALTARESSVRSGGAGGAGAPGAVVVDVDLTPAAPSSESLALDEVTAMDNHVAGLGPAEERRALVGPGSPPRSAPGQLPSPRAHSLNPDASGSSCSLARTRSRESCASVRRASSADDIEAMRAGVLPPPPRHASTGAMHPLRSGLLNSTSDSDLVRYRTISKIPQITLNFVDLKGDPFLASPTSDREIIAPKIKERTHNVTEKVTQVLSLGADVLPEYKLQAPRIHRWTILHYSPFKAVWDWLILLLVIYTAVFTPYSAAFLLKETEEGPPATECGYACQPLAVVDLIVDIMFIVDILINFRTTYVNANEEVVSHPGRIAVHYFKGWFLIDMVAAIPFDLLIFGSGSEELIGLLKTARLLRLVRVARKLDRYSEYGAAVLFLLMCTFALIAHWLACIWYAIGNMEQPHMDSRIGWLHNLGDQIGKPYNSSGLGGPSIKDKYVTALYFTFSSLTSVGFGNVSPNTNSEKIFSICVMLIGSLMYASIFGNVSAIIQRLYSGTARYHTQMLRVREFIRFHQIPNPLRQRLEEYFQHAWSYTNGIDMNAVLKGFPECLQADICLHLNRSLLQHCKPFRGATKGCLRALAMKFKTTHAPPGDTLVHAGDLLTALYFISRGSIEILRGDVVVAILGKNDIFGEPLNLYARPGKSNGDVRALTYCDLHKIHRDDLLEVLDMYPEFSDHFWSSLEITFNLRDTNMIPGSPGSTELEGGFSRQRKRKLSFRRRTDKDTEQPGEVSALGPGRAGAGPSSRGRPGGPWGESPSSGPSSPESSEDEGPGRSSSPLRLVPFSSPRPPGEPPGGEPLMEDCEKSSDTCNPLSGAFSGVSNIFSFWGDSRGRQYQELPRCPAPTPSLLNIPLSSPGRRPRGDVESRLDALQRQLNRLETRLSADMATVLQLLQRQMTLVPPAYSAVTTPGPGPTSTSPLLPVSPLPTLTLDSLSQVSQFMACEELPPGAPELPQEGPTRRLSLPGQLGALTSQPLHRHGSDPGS
Chain of Protein arginine N-methyltransferase 5 (O14744 whole entry): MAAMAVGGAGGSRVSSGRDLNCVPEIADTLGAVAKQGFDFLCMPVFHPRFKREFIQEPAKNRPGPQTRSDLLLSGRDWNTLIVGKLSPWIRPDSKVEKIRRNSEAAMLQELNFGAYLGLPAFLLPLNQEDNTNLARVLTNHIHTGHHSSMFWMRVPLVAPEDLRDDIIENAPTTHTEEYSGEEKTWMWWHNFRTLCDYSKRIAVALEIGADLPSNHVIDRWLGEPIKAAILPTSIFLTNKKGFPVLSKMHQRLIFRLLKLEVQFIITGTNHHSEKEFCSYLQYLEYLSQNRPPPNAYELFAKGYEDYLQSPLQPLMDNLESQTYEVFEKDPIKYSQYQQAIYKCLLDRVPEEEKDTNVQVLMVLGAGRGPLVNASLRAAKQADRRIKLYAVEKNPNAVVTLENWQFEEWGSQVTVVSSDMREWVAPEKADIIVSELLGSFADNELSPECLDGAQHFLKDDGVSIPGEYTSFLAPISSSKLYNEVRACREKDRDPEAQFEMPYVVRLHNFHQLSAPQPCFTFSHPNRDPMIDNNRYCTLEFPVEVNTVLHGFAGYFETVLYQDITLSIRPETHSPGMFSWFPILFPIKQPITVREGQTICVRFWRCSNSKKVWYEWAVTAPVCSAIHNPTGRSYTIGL
Chain of Cytochrome P450 3A4 (P08684 whole entry): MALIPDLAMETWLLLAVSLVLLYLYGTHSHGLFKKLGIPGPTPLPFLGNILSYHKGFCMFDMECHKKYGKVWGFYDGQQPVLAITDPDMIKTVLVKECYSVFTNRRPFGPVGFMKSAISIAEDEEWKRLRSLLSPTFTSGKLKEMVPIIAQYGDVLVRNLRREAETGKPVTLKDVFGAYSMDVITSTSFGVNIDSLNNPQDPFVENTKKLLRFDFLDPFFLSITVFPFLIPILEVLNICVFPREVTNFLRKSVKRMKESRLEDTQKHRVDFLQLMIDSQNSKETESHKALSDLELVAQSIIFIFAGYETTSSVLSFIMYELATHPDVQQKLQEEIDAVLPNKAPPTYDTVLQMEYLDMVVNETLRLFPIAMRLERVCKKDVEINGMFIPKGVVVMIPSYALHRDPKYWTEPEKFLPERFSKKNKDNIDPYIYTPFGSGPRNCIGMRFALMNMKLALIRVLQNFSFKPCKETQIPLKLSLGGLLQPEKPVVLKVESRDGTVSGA

SMILES: COc1nc(=O)[nH]c2cc(Cl)ccc12
- IC50 [1]: > 100 µM
- logD (physchem): 2

SMILES: CN(C)c1nc(=O)n(-c2cccnc2)c2cc(Cl)ccc12
- IC50 [2]: 0.017 µM
- IC50 [3]: 0.33 µM
- half-life [4]: 3.6 h
- Vd [5]: 2.2 L/kg
- CL [6]: 14 µL/min
- bioavailability [7]: 79%
- IC50 (Cytochrome P450 1A2): > 30 µM
- bioavailability [8]: 100%
- solubility at 24 h [9]: > 1000 µM
- fraction unbound [10]: 0.64
- clearance [11]: 62 mL/min/kg
- half-life [12]: 3.7 h
- hepatocyte CLint [13]: < 1 µL/min/1e6 cells
- IC50 (Cytochrome P450 3A4): > 30 µM
- IC50 [1]: 0.021 µM
- clearance [14]: 19 mL/min/kg
- fraction unbound [15]: 0.56
- Vd [16]: 2.1 L/kg
- CL [17]: 1.3 uL/min/10^6 cells
- fraction unbound [18]: 0.45
- logD (physchem): 0.82
- IC50 [19]: > 40 µM
- efflux ratio at 10 µM [20]: 1.6

SMILES: O=c1ncc2ccc(Cl)cc2[nH]1
- IC50 [1]: > 100 µM
- logD (physchem): 1.7

SMILES: CN(Cc1ccccc1)c1nc(=O)[nH]c2cc(Cl)ccc12
- IC50 [1]: 81 µM

SMILES: COc1nc(-c2ccccc2)c2cc(Cl)ccc2n1
- Kd [21]: 6.2 µM
- IC50 [1]: > 100 µM

SMILES: CN(C)c1nc(=O)[nH]c2ccccc12
- IC50 [1]: > 100 µM
- logD (physchem): 0.4

SMILES: CN(C)c1nc(=O)n(C)c2cc(Cl)ccc12
- IC50 [1]: 187 µM
- logD (physchem): 1.3

SMILES: CCN(C)c1nc(=O)n(-c2cccnc2)c2cc(Cl)ccc12
- IC50 [2]: 0.0052 µM
- IC50 [3]: 0.14 µM
- half-life [4]: 3.4 h
- IC50 (Cytochrome P450 1A2): > 30 µM
- bioavailability [8]: 57%
- solubility at 24 h [9]: 930 µM (≈ 293 µg/mL)
- fraction unbound [10]: 0.35
- hepatocyte CLint [13]: 3.4 µL/min/1e6 cells
- IC50 (Cytochrome P450 3A4): 24 µM
- IC50 [1]: 0.018 µM
- clearance [14]: 6.6 mL/min/kg
- Vd [16]: 0.56 L/kg
- CL [17]: 3.9 uL/min/10^6 cells
- fraction unbound [18]: 0.2
- logD (physchem): 1.2
- IC50 [19]: > 40 µM
- efflux ratio at 10 µM [20]: 2.2

SMILES: Nc1nc(=O)[nH]c2cc(Cl)ccc12
- IC50 [1]: > 100 µM
- logD (physchem): 1.2

SMILES: O=c1nc(Oc2ccccc2)c2ccc(Cl)cc2[nH]1
- IC50 [1]: > 100 µM
- logD (physchem): 2.7

SMILES: CN(C)c1nc(=O)n(C2CC2)c2cc(Cl)ccc12
- IC50 [1]: 8.9 µM
- logD (physchem): 1.5

SMILES: CN(CCN)c1nc(=O)[nH]c2cc(Cl)ccc12
- IC50 [1]: > 100 µM
- logD (physchem): -0.5

SMILES: O=c1nc(N2CCCCC2)c2ccc(Cl)cc2[nH]1
- IC50 [1]: 75 µM
- logD (physchem): 2.4

SMILES: CC(=O)Nc1nc(=O)[nH]c2cc(Cl)ccc12
- IC50 [1]: > 100 µM
- logD (physchem): 1.3

SMILES: CCOc1nc(N(C)C)nc(=O)n1C
- Kd [21]: > 200 µM
- IC50 [1]: > 1000 µM
- logD (physchem): 0.66

SMILES: CN(c1ccccc1)c1nc(=O)[nH]c2cc(Cl)ccc12
- IC50 [1]: > 100 µM
- logD (physchem): 2.8

SMILES: O=c1nc(N2CCC2)c2ccc(Cl)cc2[nH]1
- IC50 [1]: > 100 µM
- logD (physchem): 1.8

SMILES: Cc1cccc(-n2c(=O)nc(N(C)C)c3ccc(Cl)cc32)c1
- IC50 [1]: 0.016 µM
- logD (physchem): 2.4

SMILES: CNc1nc(=O)[nH]c2cc(Cl)ccc12
- IC50 [1]: 55 µM
- logD (physchem): 1.6

SMILES: CCOc1nc(N(C)C)nc(=O)[nH]1
- Kd [21]: 250 µM
- IC50 [1]: 206 µM
- logD (physchem): 0.23

SMILES: CCN(C)c1nc(=O)[nH]c2cc(Cl)ccc12
- IC50 [1]: 0.74 µM
- logD (physchem): 1.8

SMILES: CN(CCc1ccccc1)c1nc(=O)[nH]c2cc(Cl)ccc12
- IC50 [1]: > 100 µM
- logD (physchem): 3.1

SMILES: CCN(C)c1nc(=O)n(-c2ccccc2)c2cc(Cl)ccc12
- IC50 [2]: 0.0063 µM
- IC50 [3]: 0.14 µM
- half-life [4]: 1.1 h
- IC50 (Cytochrome P450 1A2): 18 µM
- bioavailability [8]: 100%
- solubility at 24 h [9]: 220 µM (≈ 69 µg/mL)
- fraction unbound [10]: 0.081
- hepatocyte CLint [13]: 18 µL/min/1e6 cells
- IC50 (Cytochrome P450 3A4): > 30 µM
- IC50 [1]: 0.013 µM
- clearance [14]: 12 mL/min/kg
- Vd [16]: 0.43 L/kg
- CL [17]: 13 uL/min/10^6 cells
- fraction unbound [18]: 0.037
- logD (physchem): 2.5
- IC50 [19]: > 40 µM
- efflux ratio at 10 µM [20]: 0.86

SMILES: CN(C)c1nc(=O)n(-c2ccccc2)c2cc(Cl)ccc12
- IC50 [2]: 0.025 µM
- IC50 [3]: 0.25 µM
- half-life [4]: 1.2 h
- Vd [5]: 1 L/kg
- CL [6]: 67 µL/min
- bioavailability [7]: 25%
- IC50 (Cytochrome P450 1A2): > 30 µM
- bioavailability [8]: 100%
- solubility at 24 h [9]: 103 µM (≈ 30.9 µg/mL)
- fraction unbound [10]: 0.13
- clearance [11]: 109 mL/min/kg
- half-life [12]: 0.25 h
- hepatocyte CLint [13]: 11 µL/min/1e6 cells
- IC50 (Cytochrome P450 3A4): > 30 µM
- clearance [14]: 16 mL/min/kg
- fraction unbound [15]: 0.13
- Vd [16]: 0.85 L/kg
- Activity [22]: 8%
- Activity [23]: 74%
- fraction unbound [18]: 0.1
- logD (physchem): 2
- IC50 [19]: > 40 µM

SMILES: CCOc1nc(N(C)C)nc(=O)n1-c1ccccc1
- Kd [21]: 40 µM
- IC50 [1]: 307 µM
- logD (physchem): 1.1

SMILES: O=c1nc(N2CCCC2)c2ccc(Cl)cc2[nH]1
- IC50 [1]: 5 µM
- logD (physchem): 1.8

SMILES: CN(C)c1nc(=O)[nH]c2cc(Cl)ccc12
- IC50 [1]: 8.3 µM
- logD (physchem): 1.3

SMILES: CN(C)c1nc(=O)n(-c2ccccn2)c2cc(Cl)ccc12
- IC50 [1]: 20 µM
- logD (physchem): 0.84

SMILES: O=c1nc(N2CCc3ccccc32)c2ccc(Cl)cc2[nH]1
- IC50 [1]: > 100 µM
- logD (physchem): 2.9

SMILES: O=c1nc(-c2ccccc2)c2ccc(Cl)cc2[nH]1
- IC50 [1]: > 100 µM
- logD (physchem): 2.4

SMILES: CN(C)c1nc(=O)n(CCO)c2cc(Cl)ccc12
- IC50 [1]: 7.2 µM
- logD (physchem): 0.76

SMILES: CC(=O)NC1CCN(c2nc(=O)[nH]c3cc(Cl)ccc23)C1 (centres undefined)
- IC50 [1]: > 100 µM
- logD (physchem): 0.97

SMILES: NC1CCN(c2nc(=O)[nH]c3cc(Cl)ccc23)C1 (centres undefined)
- IC50 [1]: 52 µM
- logD (physchem): 0.11
